Measurements from PubChem BioAssay AID248 (DTP/NCI, 2004).
Inconclusive results and toxic doses are left out.

System: L1210 leukemia ip in BDF1 mice, survival T/C
Assay: NCI In Vivo Anticancer Drug Screen. Data for tumor model L1210 Leukemia (intraperitoneal) in B6D2F1 (BDF1) mice
Settings: endpoint: mean survival time, higher = longer survival
Procedure, shortened: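 Transplanted-tumor mice were given test agent; controls received vehicle only. Survival readings from the two groups were divided (treated over control).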

[1] = dose: 100.0 mg/kg/injection, schedule: Q01DX001 (ip), vehicle: Klucel (hydroxypropylcellulose) (HPC)
[2] = dose: 200.0 mg/kg/injection, schedule: Q01DX001 (ip), vehicle: Klucel (hydroxypropylcellulose) (HPC)
[3] = dose: 400.0 mg/kg/injection, schedule: Q01DX001 (ip), vehicle: Klucel (hydroxypropylcellulose) (HPC)
[4] = dose: 100.0 mg/kg/injection, schedule: Q01DX001 (ip), vehicle: saline
[5] = dose: 200.0 mg/kg/injection, schedule: Q01DX001 (ip), vehicle: saline
[6] = dose: 400.0 mg/kg/injection, schedule: Q01DX001 (ip), vehicle: saline
[7] = dose: 100.0 mg/kg/injection, schedule: Q04DX002 (ip), vehicle: Klucel (hydroxypropylcellulose) (HPC)
[8] = dose: 200.0 mg/kg/injection, schedule: Q04DX002 (ip), vehicle: Klucel (hydroxypropylcellulose) (HPC)
[9] = dose: 400.0 mg/kg/injection, schedule: Q04DX002 (ip), vehicle: Klucel (hydroxypropylcellulose) (HPC)
[10] = dose: 100.0 mg/kg/injection, schedule: Q04DX003 (ip), vehicle: saline with Tween-80
[11] = dose: 200.0 mg/kg/injection, schedule: Q04DX003 (ip), vehicle: saline with Tween-80
[12] = dose: 400.0 mg/kg/injection, schedule: Q04DX003 (ip), vehicle: saline with Tween-80
[13] = dose: 100.0 mg/kg/injection, schedule: Q01DX009 (ip), vehicle: saline with Tween-80
[14] = dose: 200.0 mg/kg/injection, schedule: Q01DX009 (ip), vehicle: saline with Tween-80
[15] = dose: 100.0 mg/kg/injection, schedule: Q01DX009 (ip), vehicle: Klucel (hydroxypropylcellulose) (HPC)
[16] = dose: 200.0 mg/kg/injection, schedule: Q01DX009 (ip), vehicle: Klucel (hydroxypropylcellulose) (HPC)
[17] = dose: 100.0 mg/kg/injection, schedule: Q01DX001 (ip), vehicle: saline with Tween-80
[18] = dose: 200.0 mg/kg/injection, schedule: Q01DX001 (ip), vehicle: saline with Tween-80
[19] = dose: 400.0 mg/kg/injection, schedule: Q01DX001 (ip), vehicle: saline with Tween-80
[20] = dose: 50.0 mg/kg/injection, schedule: Q01DX009 (ip), vehicle: saline with Tween-80

## OCCNCCN1CCN(CCCN2c3ccccc3Sc3ccc(C(F)(F)F)cc32)CC1
dose: 6.25 mg/kg/injection, schedule: Q01DX009 (ip), vehicle: saline
  T/C: 111 % of control
dose: 6.25 mg/kg/injection, schedule: Q04DX003 (ip), vehicle: saline
  T/C: 104 % of control
dose: 12.5 mg/kg/injection, schedule: Q01DX009 (ip), vehicle: saline
  T/C: 105 % of control
dose: 12.5 mg/kg/injection, schedule: Q04DX003 (ip), vehicle: saline
  T/C: 101 % of control
dose: 25.0 mg/kg/injection, schedule: Q01DX009 (ip), vehicle: saline
  T/C: 88 % of control
dose: 25.0 mg/kg/injection, schedule: Q04DX003 (ip), vehicle: saline
  T/C: 95 % of control

## c1cncc(-c2nnc(-c3cccnc3)o2)c1
dose: 12.5 mg/kg/injection, schedule: Q04DX002 (ip), vehicle: saline with Tween-80
  T/C: 124 % of control
dose: 50.0 mg/kg/injection, schedule: Q04DX002 (ip), vehicle: saline with Tween-80
  T/C: 91 % of control

## O=C(O)CC(=O)c1cccc([N+](=O)[O-])c1
[1]
  T/C: 104 % of control
[2]
  T/C: 97 % of control
[3]
  T/C: 96 % of control

## O=C(/C=C/C(=O)n1ccc2ccccc21)n1ccc2ccccc21
dose: 50.0 mg/kg/injection, schedule: Q01DX001 (ip), vehicle: saline
  T/C: 95 % of control
[4]
  T/C: 95 % of control
[5]
  T/C: 101 % of control
[6]
  T/C: 95 % of control

## CCC(Cl)COP(=O)(OCC(Cl)CC)C(OP(=S)(OCC(Cl)CC)OCC(Cl)CC)C(C)C (configuration not stated)
dose: 50.0 mg/kg/injection, schedule: Q04DX002 (sc), vehicle: olive oil, sesame oil, peanut oil
  T/C: 104 % of control
dose: 100.0 mg/kg/injection, schedule: Q04DX002 (sc), vehicle: olive oil, sesame oil, peanut oil
  T/C: 118 % of control
dose: 200.0 mg/kg/injection, schedule: Q04DX002 (sc), vehicle: olive oil, sesame oil, peanut oil
  T/C: 110 % of control

## COC1OC(CI)C(OC(=O)c2ccccc2)C(OC(=O)c2ccccc2)C1OC(=O)c1ccccc1 (configuration not stated)
[7]
  T/C: 101 % of control
[8]
  T/C: 93 % of control
[9]
  T/C: 121 % of control

## S=C1N(C2CCCCC2)CCN1C1CCCCC1
[7]
  T/C: 97 % of control

## CCCCC(=O)N/N=C/c1cc(I)cc(I)c1O
[4]
  T/C: 87 % of control
[5]
  T/C: 89 % of control
[6]
  T/C: 87 % of control

## C=CCOc1cccc(C(C)(C)C)c1
dose: 75.0 mg/kg/injection, schedule: Q04DX003 (ip), vehicle: saline with Tween-80
  T/C: 103 % of control
dose: 150.0 mg/kg/injection, schedule: Q04DX003 (ip), vehicle: saline with Tween-80
  T/C: 101 % of control
dose: 300.0 mg/kg/injection, schedule: Q04DX003 (ip), vehicle: saline with Tween-80
  T/C: 92 % of control

## CCCCNS(=O)(=O)CCCC
[10]
  T/C: 105 % of control
[11]
  T/C: 101 % of control
[12]
  T/C: 97 % of control

## CC(=O)OCc1cc2ccccc2nc1C
[13]
  T/C: 110 % of control
[10]
  T/C: 102 % of control
[14]
  T/C: 104 % of control
[11]
  T/C: 96 % of control
dose: 400.0 mg/kg/injection, schedule: Q01DX009 (ip), vehicle: saline with Tween-80
  T/C: 98 % of control
[12]
  T/C: 96 % of control

## COC(=O)CCC(C)=O
[4]
  T/C: 102 % of control
[5]
  T/C: 102 % of control
[6]
  T/C: 100 % of control

## O=C(Nc1ccccc1)Oc1ccc(Cl)cc1
[15]
  T/C: 97 % of control
dose: 100.0 mg/kg/injection, schedule: Q04DX003 (ip), vehicle: Klucel (hydroxypropylcellulose) (HPC)
  T/C: 107 % of control
[16]
  T/C: 102 % of control
dose: 200.0 mg/kg/injection, schedule: Q04DX003 (ip), vehicle: Klucel (hydroxypropylcellulose) (HPC)
  T/C: 96 % of control
dose: 400.0 mg/kg/injection, schedule: Q01DX009 (ip), vehicle: Klucel (hydroxypropylcellulose) (HPC)
  T/C: 103 % of control
dose: 400.0 mg/kg/injection, schedule: Q04DX003 (ip), vehicle: Klucel (hydroxypropylcellulose) (HPC)
  T/C: 113 % of control

## CN(C)C(=S)Nc1ccccc1
dose: 100.0 mg/kg/injection, schedule: Q01DX009 (ip), vehicle: saline
  T/C: 114 % of control
dose: 130.0 mg/kg/injection, schedule: Q01DX009 (ip), vehicle: Klucel (hydroxypropylcellulose) (HPC)
  T/C: 98 % of control
[16]
  T/C: 103 % of control

## COc1ccc2cc1Oc1ccc(cc1)CC1c3cc(c(OC)cc3CCN1C)Oc1c(OC)c(OC)c(OC)c3c1C(C2)N(C)CC3 (configuration not stated)
[7]
  T/C: 102 % of control
[8]
  T/C: 91 % of control
[9]
  T/C: 94 % of control

## N#CCc1ccccc1NC(=O)CCl
[17]
  T/C: 100 % of control
[18]
  T/C: 106 % of control
[19]
  T/C: 108 % of control

## CC(C)CCn1ccc(=O)[nH]c1=O
[1]
  T/C: 100 % of control
[2]
  T/C: 98 % of control
[3]
  T/C: 105 % of control

## Cc1cc(O)c(O)c(C(C)(C)C)c1
dose: 100.0 mg/kg/injection, schedule: Q04DX002 (ip), vehicle: other
  T/C: 102 % of control
dose: 200.0 mg/kg/injection, schedule: Q04DX002 (ip), vehicle: other
  T/C: 87 % of control

## CC(=O)Nc1c(I)c(NC(C)=O)c(I)c(C(=O)O)c1I
[20]
  T/C: 105 % of control
[13]
  T/C: 99 % of control
[14]
  T/C: 108 % of control

## COc1cc2c(cc1OC(C)=O)C(=O)C(Br)CCC2 (configuration not stated)
[20]
  T/C: 90 % of control
[13]
  T/C: 101 % of control
[14]
  T/C: 93 % of control

## O=[N+]([O-])C12CCC(c3ccccc31)c1ccccc12
dose: 100.0 mg/kg/injection, schedule: Q04DX002 (ip), vehicle: gum acacia
  T/C: 103 % of control
dose: 200.0 mg/kg/injection, schedule: Q04DX002 (ip), vehicle: gum acacia
  T/C: 101 % of control
dose: 400.0 mg/kg/injection, schedule: Q04DX002 (ip), vehicle: gum acacia
  T/C: 92 % of control

## CC(c1ccccc1)C(O)c1ccccc1 (configuration not stated)
[17]
  T/C: 97 % of control
[18]
  T/C: 91 % of control
[19]
  T/C: 91 % of control

## Cc1ccc(Oc2cccc3c[n+](C)ccc23)cc1
dose: 25.0 mg/kg/injection, schedule: Q04DX002 (ip), vehicle: DMSO
  T/C: 93 % of control
dose: 50.0 mg/kg/injection, schedule: Q04DX002 (ip), vehicle: DMSO
  T/C: 96 % of control
dose: 100.0 mg/kg/injection, schedule: Q04DX002 (ip), vehicle: DMSO
  T/C: 86 % of control

## CS(=O)(=O)OCCN(CCOS(C)(=O)=O)c1ccc(C=Nc2ccc(-c3csc(-c4ccc(Cl)cc4)n3)cc2)cc1
dose: 66.0 mg/kg/injection, schedule: Q04DX003 (ip), vehicle: Klucel (hydroxypropylcellulose) (HPC)
  T/C: 122 % of control
dose: 150.0 mg/kg/injection, schedule: Q04DX003 (ip), vehicle: Klucel (hydroxypropylcellulose) (HPC)
  T/C: 153 % of control

## O=C(N/N=C/c1[nH]c(=S)[nH]c(=O)c1Cc1ccc(Cl)cc1)c1ccncc1
[1]
  T/C: 104 % of control
[2]
  T/C: 101 % of control
[3]
  T/C: 98 % of control

## O=C(Nc1ccc(CCO)cc1)Nc1cc(C(F)(F)F)ccc1Cl
[15]
  T/C: 100 % of control
[16]
  T/C: 95 % of control
